We go through 15 compounds from patent US4181732A, “1-Branched-alkylcarbonyl-3-(3,5-dihalophenyl)imidazolidine-2,4-diones” (Sumitomo Chemical Company, Limited, priority 1977, dated 1980).

In general, inhibition refers to the drop in the measured response relative to a control, in per cent.

In test [1] the test system is wild (susceptible) strain of Alternaria kikuchiana. As to the kind of experiment: Fungicidal activity test: mycelial growth inhibition on agar plate, wild susceptible strain. In kind it is cell-based. The conditions noted are these: 96 h, 27° C., 4 days, read-out: Percentage of growth inhibition, wild susceptible strain; for inhibition at 1 ppm: 1 ppm active ingredient; for inhibition at 10 ppm: 10 ppm active ingredient.

Test [2] has as its system fungicide-resistant strain of black spot fungus (Alternaria kikuchiana) resistant to Polyoxin. The experiment in a line: Fungicidal activity test on fungicide-resistant pathogens: mycelial growth inhibition on agar plate, Polyoxin-resistant strain. In kind it is cell-based. To be noted: 96 h, 27° C., 4 days, read-out: Percentage of growth inhibition, fungicide-resistant strain; for inhibition at 1 ppm: 1 ppm active ingredient; for inhibition at 10 ppm: 10 ppm active ingredient.

Test [3] deals with Alternaria leaf spot of apple (Alternaria mali). As to the kind of experiment: Protective activity test on Alternaria leaf spot of apple. Format: in vivo. The conditions noted are these: 500 ppm active ingredient; apple var. Indo, sprayed 6 days before inoculation; no treatment 79.6.
Test [4] relates to blue mold of orange (Penicillium italicum). As to the kind of experiment: Protective activity test on blue mold of orange. Format: in vivo. The conditions noted are these: orange fruits var. Unshu dipped 1 minute, index 0-5, 7 days after inoculation, no treatment 5.0. On the procedure:
Protective activity test on blue mold of orange (Penicillium italicum): Orange fruits (var.: Unshu) were well washed with water and air-dried. Each of the emulsifiable concentrates containing the test compounds was diluted with water to a required concentration and the air-dried orange fruits were dipped in the aqueous solution for 1 minute. After air-drying, the surface of the fruit was inoculated by spraying a spore suspension of Pencillium italicum cultured in a potato agar medium for 5 days. […] The results are shown in the mean value of disease index.

The subject of test [5] is black spot of pear (Alternaria kikuchiana). As to the kind of experiment: Protective activity test on black spot of pear. Format: in vivo. To be noted: 500 ppm active ingredient; pear var. 20-Seiki, sprayed 7 days before inoculation; no treatment 77.8.

The structures appear in SMILES notation.

On to `CC(C)(C)CC(=O)N1CC(=O)N(c2cc(Cl)cc(Cl)c2)C1=O` [Compound 4], for which the inhibition at 1 ppm turned out to be 64% in test [1] and 61% in test [2]. In addition, the inhibition at 10 ppm came out at 92% in test [1] and 93% in test [2]. The results for the Disease severity in test [3] and in test [5] were 5.7% and 8.9%, respectively. Besides, the “Mean value of disease index” value in test [4] (100 ppm active ingredient) was determined as 0.4.
As to `CCC(C)CC(=O)N1CC(=O)N(c2cc(Cl)cc(Cl)c2)C1=O` (centres unmarked) [Compound 7], the Disease severity in test [3] is 4.1%; in test [5] it was 3.7%.
`CCC(=O)N1CC(=O)N(c2cc(Cl)cc(Cl)c2)C1=O` [drawing 40, reference compound] yielded a Disease severity in test [3] of 36.8%.
Take `CCC(C)C(=O)N1CC(=O)N(c2cc(Cl)cc(Cl)c2)C1=O` (centres unmarked) [Compound 6]: the figures for the Disease severity in test [3] and in test [5] were 8.1% and 5.5%, respectively.
`CC(C)(C)C(=O)N1CC(=O)N(c2cc(Cl)cc(Cl)c2)C1=O` [Compound 3]: the Disease severity in test [3] is recorded as 9.6%; in test [5] it was 7.4%. The “Mean value of disease index” value in test [4] (100 ppm active ingredient) stood at 0.2.
For `CCCC(C)C(=O)N1CC(=O)N(c2cc(Cl)cc(Cl)c2)C1=O` (centres unmarked) [Compound 9], the Disease severity in test [3] is listed as 1.7%; in test [5], 2.1%.
With `CC(C)CCC(=O)N1CC(=O)N(c2cc(Cl)cc(Cl)c2)C1=O` [Compound 10], the Disease severity in test [3] was determined as 9.9%; in test [5] it was 9.8%.
Consider `CC(C)C(=O)N1CC(=O)N(c2cc(Cl)cc(Cl)c2)C1=O` [Compound 1], for which the values for the Disease severity in test [3] and in test [5] were 7.2% and 4.3%, respectively. Further, in test [4] (100 ppm active ingredient), the “Mean value of disease index” value came out at 0.5.
Regarding `CC(=O)N1CC(=O)N(c2cc(Cl)cc(Cl)c2)C1=O` [reference compound], the “Mean value of disease index” value in test [4] (200 ppm active ingredient) was found to be 2.8.
Consider `CCC(=O)N1CC(=O)N(c2cc(Cl)cc(Cl)c2)C1=O` [drawing 37, reference compound], for which, in test [1], the inhibition at 1 ppm is 49% and the inhibition at 10 ppm was 68%. In test [2], the inhibition at 1 ppm was 45% and the inhibition at 10 ppm is 69%.
`CC(C)CC(=O)N1CC(=O)N(c2cc(Cl)cc(Cl)c2)C1=O` [Compound 2]: the inhibition at 1 ppm in test [1] stood at 78%; in test [2], 76%. Moreover, the inhibition at 10 ppm in test [1] amounted to 96%; in test [2], 95%. Also, the Disease severity in test [3] was 2.4%; in test [5] it was 3.0%. Besides, the “Mean value of disease index” value in test [4] (100 ppm active ingredient) is 0.0.
Take `CC(C)CC(=O)N1CC(=O)N(c2cc(Br)cc(Br)c2)C1=O` [Compound 5]: the Disease severity is recorded as 3.0% in test [3] and 2.6% in test [5]. Besides, in test [4] (100 ppm active ingredient), the “Mean value of disease index” value is reported as 0.1.
For the compound `CCC(=O)N1CC(=O)N(c2cc(Cl)cc(Cl)c2)C1=O` [drawing 38, reference compound], in test [5], the Disease severity amounted to 31.6%.
On to `CCC(CC)C(=O)N1CC(=O)N(c2cc(Cl)cc(Cl)c2)C1=O` [Compound 8], for which the Disease severity in test [3] was determined as 3.6%; in test [5], 4.0%.
With `CCC(=O)N1CC(=O)N(c2cc(Cl)cc(Cl)c2)C1=O` [drawing 43, reference compound], in test [4] (200 ppm active ingredient), the “Mean value of disease index” value stood at 3.0.
